Laboratory results published in patent publication US20230233569A1 (Revolution Medicines, Inc., priority 2020, published 2023).
Several values for one entry are separate records, joined by “and”; a condition that tells them apart may be missing. Equal values may be shown once.

Legend:
NCI-H358 (K-Ras G12C) = experiment: CellTiter-Glo cell viability assay, 5-day treatment; type: cell-based; conditions: Homo sapiens, NCI-H358, 120 h, 5-day treatment; read-out: H358 Cell Viability assay data (K-Ras G12C, IC50)
Description: Protocol: CellTiter-Glo® Cell Viability Assay
Note—The following protocol describes a procedure for monitoring cell viability of K-Ras mutant cancer cell lines in response to a compound of the invention. Other RAS isoforms may be employed, though the number of cells to be seeded will vary based on cell line used.
(§1) Test compounds (132.5 nL) were directly dispensed into the assay plates containing cells. […] On day 5, assay plates and their contents were equilibrated to room temperature for approximately 30 minutes. […] Luminescence was measured using the PerkinElmer Enspire. Data were normalized by the following: (Sample signal/Avg. DMSO)*100. The data were fit using a four-parameter logistic fit.
as §1, with “nl)” for “nL)”

KRAS G12D = KRAS G12D (Homo sapiens, UniProt P01116+P62937, G12D); experiment: Disruption of BRAF RBD interaction with Ras (FRET / MOA assay, with Cyclophilin A); type: biochemical; conditions: read-out: KRAS G12D FRET data, IC50
Source text: (§2) This protocol may also be executed substituting other Ras proteins or nucleotides.
(§3) The purpose of this biochemical assay was to measure the ability of test compounds to facilitate ternary complex formation between a nucleotide-loaded K-Ras isoform and Cyclophilin A; the resulting ternary complex disrupts binding to a BRAF^RBD construct, inhibiting K-Ras signaling through a RAF effector. Data is reported as IC50 values.
(§4) Compound was present in plate wells as a 10-point 3-fold dilution series starting at a final concentration of 30 μM. After incubation at 25° C. for 3 hours, a mixture of Anti-His Eu-W1024 and anti-GST allophycocyanin was then added to assay sample wells at final concentrations of 10 nM and 50 nM, respectively, and the reaction incubated for an additional 1.5 hours. […] Compounds that facilitate disruption of a K-Ras:RAF complex were identified as those eliciting a decrease in the TR-FRET ratio relative to DMSO control wells.
as §3, with “BRAF^RBDD” for “BRAF^RBD”

KRAS G12V = KRAS G12V (Homo sapiens, UniProt P01116+P62937, G12V); experiment: as above; type: biochemical; conditions: KRAS G12V; read-out: KRAS G12V FRET data IC50
Source text: as §2, §3, §4
as §3, with “BRAF^RBDD” for “BRAF^RBD”

KRAS WT = KRAS WT (Homo sapiens, UniProt P01116+P62937); experiment: as above; type: biochemical; conditions: KRAS WT; read-out: KRAS WT FRET data IC50
Source text: as §2, §3, §4
as §3, with “BRAF^RBDD” for “BRAF^RBD”

KRAS G12C = KRAS G12C (Homo sapiens, UniProt P01116+P62937, G12C); experiment: as above; type: biochemical; conditions: read-out: KRAS G12C FRET data, IC50
Source text: as §2, §3, §4
as §3, with “BRAF^RBDD” for “BRAF^RBD”

KRAS G13D = KRAS G13D (Homo sapiens, UniProt P01116+P62937, G13D); experiment: as above; type: biochemical; conditions: KRAS G13D; read-out: KRAS G13D FRET data IC50
Source text: as §2, §3, §4
as §3, with “BRAF^RBDD” for “BRAF^RBD”

KRAS G13C = KRAS G13C (Homo sapiens, UniProt P01116+P62937, G13C); experiment: as above; type: biochemical; conditions: read-out: KRAS G13C FRET data, IC50
Source text: as §2, §3, §4
as §3, with “BRAF^RBDD” for “BRAF^RBD”

NRAS G12C = NRAS G12C (Homo sapiens, UniProt P01111+P62937, G12C); experiment: as above; type: biochemical; conditions: NRAS G12C; read-out: NRAS G12C FRET data IC50
Source text: as §2, §3, §4
as §3, with “BRAF^RBDD” for “BRAF^RBD”

KRAS G12S = KRAS G12S (Homo sapiens, UniProt P01116+P62937, G12S); experiment: as above; type: biochemical; conditions: read-out: KRAS G12S FRET data, IC50
Source text: as §2, §3, §4
as §3, with “BRAF^RBDD” for “BRAF^RBD”

Measured: IC50

KRAS G12C, sequence (P01116 1-169 isoform P01116-2 G12C): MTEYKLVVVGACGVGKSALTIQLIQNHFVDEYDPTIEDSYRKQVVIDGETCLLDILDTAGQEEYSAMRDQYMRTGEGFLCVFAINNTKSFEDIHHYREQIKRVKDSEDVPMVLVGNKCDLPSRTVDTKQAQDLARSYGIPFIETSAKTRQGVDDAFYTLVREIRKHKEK
KRAS G12C, sequence (P62937 whole entry): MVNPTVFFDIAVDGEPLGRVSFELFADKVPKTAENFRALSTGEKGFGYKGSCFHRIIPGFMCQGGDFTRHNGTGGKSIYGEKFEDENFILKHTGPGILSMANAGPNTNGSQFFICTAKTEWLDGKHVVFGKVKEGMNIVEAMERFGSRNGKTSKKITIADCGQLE
KRAS WT, sequence (P01116 1-169 isoform P01116-2 limits assumed): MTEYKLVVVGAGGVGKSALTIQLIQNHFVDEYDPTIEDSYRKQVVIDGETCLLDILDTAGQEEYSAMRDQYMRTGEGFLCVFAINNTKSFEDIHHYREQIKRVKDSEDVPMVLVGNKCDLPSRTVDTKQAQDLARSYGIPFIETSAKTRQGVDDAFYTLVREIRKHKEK
KRAS WT, sequence (P62937 whole entry): as the sequence (P62937 whole entry) above
KRAS G13D, sequence (P01116 1-169 isoform P01116-2 G13D limits assumed): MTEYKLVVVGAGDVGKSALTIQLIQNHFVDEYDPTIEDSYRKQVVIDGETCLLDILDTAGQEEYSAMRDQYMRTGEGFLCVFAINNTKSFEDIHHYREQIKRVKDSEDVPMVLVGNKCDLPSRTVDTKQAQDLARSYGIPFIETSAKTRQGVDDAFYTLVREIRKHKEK
KRAS G13D, sequence (P62937 whole entry): as the sequence (P62937 whole entry) above
KRAS G12D, sequence (P01116 1-169 isoform P01116-2 G12D limits assumed): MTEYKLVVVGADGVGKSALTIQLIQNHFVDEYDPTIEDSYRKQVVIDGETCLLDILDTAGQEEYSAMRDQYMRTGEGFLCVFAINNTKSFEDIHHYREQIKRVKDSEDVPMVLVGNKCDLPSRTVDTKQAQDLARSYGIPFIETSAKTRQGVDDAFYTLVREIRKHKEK
KRAS G12D, sequence (P62937 whole entry): as the sequence (P62937 whole entry) above
KRAS G12V, sequence (P01116 1-169 isoform P01116-2 G12V limits assumed): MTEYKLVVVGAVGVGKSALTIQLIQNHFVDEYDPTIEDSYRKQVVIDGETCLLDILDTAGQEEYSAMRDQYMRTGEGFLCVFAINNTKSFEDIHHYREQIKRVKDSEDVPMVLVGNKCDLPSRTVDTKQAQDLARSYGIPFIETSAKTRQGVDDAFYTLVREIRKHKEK
KRAS G12V, sequence (P62937 whole entry): as the sequence (P62937 whole entry) above
NRAS G12C, sequence (P01111 whole entry G12C): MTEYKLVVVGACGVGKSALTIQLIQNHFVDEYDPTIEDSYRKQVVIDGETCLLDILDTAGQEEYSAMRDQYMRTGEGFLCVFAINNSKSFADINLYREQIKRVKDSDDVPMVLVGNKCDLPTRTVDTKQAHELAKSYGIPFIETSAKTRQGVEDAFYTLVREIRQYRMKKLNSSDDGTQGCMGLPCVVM
NRAS G12C, sequence (P62937 whole entry): as the sequence (P62937 whole entry) above
KRAS G13C, sequence (P01116 1-169 isoform P01116-2 G13C): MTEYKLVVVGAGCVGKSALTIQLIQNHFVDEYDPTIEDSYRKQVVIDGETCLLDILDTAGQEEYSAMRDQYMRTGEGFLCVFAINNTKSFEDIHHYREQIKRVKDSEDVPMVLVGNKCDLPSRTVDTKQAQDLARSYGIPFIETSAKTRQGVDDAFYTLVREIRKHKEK
KRAS G13C, sequence (P62937 whole entry): as the sequence (P62937 whole entry) above
KRAS G12S, sequence (P01116 1-169 isoform P01116-2 G12S limits assumed): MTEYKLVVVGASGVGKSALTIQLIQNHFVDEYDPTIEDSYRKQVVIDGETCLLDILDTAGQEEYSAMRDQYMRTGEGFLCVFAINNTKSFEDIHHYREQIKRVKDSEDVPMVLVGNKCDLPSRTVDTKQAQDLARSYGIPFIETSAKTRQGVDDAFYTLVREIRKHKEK
KRAS G12S, sequence (P62937 whole entry): as the sequence (P62937 whole entry) above

CCn1c(-c2cccnc2[C@H](C)OC)c2c3cc(ccc31)-c1cc(O)cc(c1)C[C@H](NC(=O)[C@H](C(C)C)N(C)C(=O)[C@@H]1NC[C@@H]3C[C@@H]31)C(=O)N1CCC[C@H](N1)C(=O)OCC(C)(C)C2 [Example A217]
0.01 to 0.1 µM: NCI-H358 (K-Ras G12C)

CO[C@@H](C)c1ncccc1-c1c2c3cc(ccc3n1C)-c1csc(n1)C[C@H](NC(=O)[C@H](C(C)C)N(C)C(C)=O)C(=O)N1CCC[C@H](N1)C(=O)OCC(C)(C)C2 (racemic) [Example A103]
not listed: NCI-H358 (K-Ras G12C)
> 10 µM: all other assays above

CCC(=O)N1CC[C@H](C(=O)N(C)[C@H](C(=O)N[C@H]2Cc3cc(O)cc(c3)-c3ccc4c(c3)c(c(-c3ccccc3CCOC)n4CC)CC(C)(C)COC(=O)[C@@H]3CCCN(N3)C2=O)C(C)C)C1 [Example A34]
1 to 10 µM: KRAS G12V | KRAS WT | KRAS G13D | KRAS G13C | KRAS G12S
0.1 to 1 µM: KRAS G12C

CCn1c(-c2cccnc2[C@H](C)OC)c2c3cc(ccc31)-c1cc(O)cc(c1)C[C@H](NS(=O)(=O)N1CCN(C)CC1)C(=O)N1CCC[C@H](N1)C(=O)OCC(C)(C)C2 (racemic) [Example A193]
not listed: NCI-H358 (K-Ras G12C)
> 10 µM: all other assays above

CCn1c(-c2cccnc2[C@H](C)OC)c2c3cc(ccc31)-c1cc(O)cc(c1)C[C@H](NS(=O)(=O)CC1CCC3(CNC3)C1)C(=O)N1CCC[C@H](N1)C(=O)OCC(C)(C)C2 (mixture of isomers) [Example A188]
> 10 µM: KRAS WT | KRAS G12C | KRAS G13D | NRAS G12C | KRAS G12S

C=CC(=O)N1CC(OC[C@H](C(=O)N[C@H]2Cc3cccc(c3)-c3ccc4c(c3)c(c(-c3cccnc3[C@H](C)OC)n4CC)CC(C)(C)COC(=O)[C@@H]3CCCN(N3)C2=O)C(C)C)C1 (racemic) [Example A484]
> 10 µM: KRAS G12V | KRAS WT
1 to 10 µM: NRAS G12C

CCn1c(-c2cnccc2COC)c2c3cc(ccc31)-c1cc(O)cc(c1)C[C@H](NC(=O)[C@H](C(C)C)N(C)CC(F)(F)F)C(=O)N1CCC[C@H](N1)C(=O)OCC(C)(C)C2 [Example A77]
1 to 10 µM: KRAS G12C | KRAS G13D | KRAS G13C
not listed: NCI-H358 (K-Ras G12C)
> 10 µM: all other assays above

CCn1c(-c2cccnc2[C@H](C)OC)c2c3cc(ccc31)-c1cc(O)cc(c1)C[C@H](NC(=O)[C@H](C(C)C)N(C)C(=O)[C@H]1CCN(C(=O)OC(C)C)C1)C(=O)N1CCC[C@H](N1)C(=O)OCC(C)(C)C2 [Example A117]
1 to 10 µM and 0.01 to 0.1 µM: KRAS G12V | KRAS G12C
1 to 10 µM and > 10 µM: KRAS G12D
0.1 to 1 µM and 1 to 10 µM: NRAS G12C
not listed: NCI-H358 (K-Ras G12C)
0.1 to 1 µM and > 10 µM: all other assays above

CCn1c(-c2cccnc2[C@H](C)OC)c2c3cc(ccc31)-c1cc(C#N)cc(c1)C[C@H](NC(=O)[C@H](C(C)C)N(C)C(C)=O)C(=O)N1CCC[C@H](N1)C(=O)OCC(C)(C)C2 (atropisomer, axis not shown) [Example A430]
not listed: NCI-H358 (K-Ras G12C)
> 10 µM: all other assays above
